Test results taken from the NIST ThermoML archive (doi:10.1016/j.jct.2016.03.026).
Numbers after ± are expanded uncertainties.

Assay: xn = mol fraction of the nth substance listed
Settings: 313.15 K, Fluid (supercritical or subcritical phases), Vibrating tube method, x1 = 0.97

O=C=O [carbon dioxide] + CO
Settings	mass density [kg/m3]
11150 kPa	721.68 ± 0.83
11175 kPa	722.44 ± 0.83
11200 kPa	723.12 ± 0.83
11225 kPa	723.83 ± 0.83
11250 kPa	724.5 ± 0.83
11275 kPa	725.17 ± 0.83
11300 kPa	725.87 ± 0.83
11325 kPa	726.55 ± 0.83
11350 kPa	727.24 ± 0.83
11375 kPa	727.87 ± 0.83
11400 kPa	728.58 ± 0.83
11425 kPa	729.26 ± 0.83
11450 kPa	729.89 ± 0.83
11475 kPa	730.56 ± 0.83
11500 kPa	731.23 ± 0.83
11525 kPa	731.88 ± 0.83
11550 kPa	732.54 ± 0.83
11575 kPa	733.12 ± 0.83
11600 kPa	733.75 ± 0.83
11625 kPa	734.36 ± 0.83
11650 kPa	734.97 ± 0.83
11675 kPa	735.62 ± 0.83
11700 kPa	736.24 ± 0.83
11725 kPa	736.79 ± 0.83
11750 kPa	737.41 ± 0.83
11775 kPa	738.01 ± 0.83
11800 kPa	738.59 ± 0.83
11825 kPa	739.2 ± 0.83
11850 kPa	739.81 ± 0.83
11875 kPa	740.42 ± 0.83
11900 kPa	741.01 ± 0.83
11925 kPa	741.62 ± 0.83
11950 kPa	742.23 ± 0.83
11975 kPa	742.81 ± 0.83
12000 kPa	743.38 ± 0.83
12025 kPa	743.98 ± 0.83
12050 kPa	744.51 ± 0.83
12075 kPa	745.12 ± 0.83
12100 kPa	745.65 ± 0.83
12125 kPa	746.23 ± 0.83
12150 kPa	746.78 ± 0.83
12175 kPa	747.4 ± 0.83
12200 kPa	747.95 ± 0.83
12225 kPa	748.48 ± 0.83
12250 kPa	749.04 ± 0.83
12275 kPa	749.5 ± 0.83
12300 kPa	750.05 ± 0.83
12325 kPa	750.56 ± 0.83
12350 kPa	751.14 ± 0.83
12375 kPa	751.63 ± 0.83
12400 kPa	752.14 ± 0.83
12425 kPa	752.63 ± 0.83
12450 kPa	753.18 ± 0.83
12475 kPa	753.64 ± 0.83
12500 kPa	754.12 ± 0.83
12525 kPa	754.59 ± 0.83
12550 kPa	755.09 ± 0.83
12575 kPa	755.53 ± 0.83
12600 kPa	756 ± 0.83
12625 kPa	756.47 ± 0.83
12650 kPa	756.92 ± 0.83
12675 kPa	757.39 ± 0.83
12700 kPa	757.86 ± 0.83
12725 kPa	758.3 ± 0.83
12750 kPa	758.68 ± 0.83
12775 kPa	759.12 ± 0.83
12800 kPa	759.54 ± 0.83
12825 kPa	759.98 ± 0.83
12850 kPa	760.36 ± 0.83
12875 kPa	760.82 ± 0.83
12900 kPa	761.3 ± 0.83
12925 kPa	761.76 ± 0.83
12950 kPa	762.23 ± 0.83
12975 kPa	762.72 ± 0.83
13000 kPa	763.15 ± 0.83
13025 kPa	763.58 ± 0.83
13050 kPa	764.07 ± 0.83
13075 kPa	764.54 ± 0.83
13100 kPa	764.93 ± 0.83
13125 kPa	765.37 ± 0.83
13150 kPa	765.86 ± 0.83
13175 kPa	766.29 ± 0.83
13200 kPa	766.75 ± 0.83
13225 kPa	767.22 ± 0.83
13250 kPa	767.6 ± 0.83
13275 kPa	768.04 ± 0.83
13300 kPa	768.47 ± 0.83
13325 kPa	768.93 ± 0.83
13350 kPa	769.37 ± 0.83
13375 kPa	769.83 ± 0.83
13400 kPa	770.23 ± 0.83
13425 kPa	770.69 ± 0.83
13450 kPa	771.07 ± 0.83
13475 kPa	771.5 ± 0.83
13500 kPa	771.93 ± 0.83
13525 kPa	772.34 ± 0.83
13550 kPa	772.7 ± 0.83
13575 kPa	773.15 ± 0.83
13600 kPa	773.57 ± 0.83
13625 kPa	773.92 ± 0.83
13650 kPa	774.36 ± 0.83
13675 kPa	774.79 ± 0.83
13700 kPa	775.16 ± 0.83
13725 kPa	775.57 ± 0.83
13750 kPa	776 ± 0.83
13775 kPa	776.36 ± 0.83
13800 kPa	776.72 ± 0.83
13825 kPa	777.12 ± 0.83
13850 kPa	777.52 ± 0.83
13875 kPa	777.93 ± 0.83
13900 kPa	778.33 ± 0.83
13925 kPa	778.72 ± 0.83
13950 kPa	779.11 ± 0.83
13975 kPa	779.47 ± 0.83
14000 kPa	779.85 ± 0.83
14025 kPa	780.28 ± 0.83
14050 kPa	780.67 ± 0.83
14075 kPa	781.06 ± 0.83
14100 kPa	781.44 ± 0.83
14125 kPa	781.8 ± 0.83
14150 kPa	782.18 ± 0.83
14175 kPa	782.55 ± 0.83
14200 kPa	782.93 ± 0.83
14225 kPa	783.28 ± 0.83
14250 kPa	783.65 ± 0.83
14275 kPa	784.01 ± 0.83
14300 kPa	784.39 ± 0.83
14325 kPa	784.77 ± 0.83
14350 kPa	785.15 ± 0.83
14375 kPa	785.52 ± 0.83
14400 kPa	785.88 ± 0.83
14425 kPa	786.27 ± 0.83
14450 kPa	786.66 ± 0.83
14475 kPa	787.01 ± 0.83
14500 kPa	787.34 ± 0.83
14525 kPa	787.73 ± 0.83
14550 kPa	788.05 ± 0.83
14575 kPa	788.43 ± 0.83
14600 kPa	788.78 ± 0.83
14625 kPa	789.1 ± 0.83
14650 kPa	789.51 ± 0.83
14675 kPa	789.86 ± 0.83
14700 kPa	790.23 ± 0.83
14725 kPa	790.55 ± 0.83
14750 kPa	790.91 ± 0.83
14775 kPa	791.25 ± 0.83
14800 kPa	791.65 ± 0.83
14825 kPa	791.96 ± 0.83
14850 kPa	792.31 ± 0.83
14875 kPa	792.64 ± 0.83
14900 kPa	793.03 ± 0.83
14925 kPa	793.37 ± 0.83
14950 kPa	793.74 ± 0.83
14975 kPa	794.09 ± 0.83
15000 kPa	794.4 ± 0.83
15025 kPa	794.78 ± 0.83
15050 kPa	795.16 ± 0.83
15075 kPa	795.5 ± 0.83
15100 kPa	795.8 ± 0.83
15125 kPa	796.2 ± 0.83
15150 kPa	796.56 ± 0.83
15175 kPa	796.89 ± 0.83
15200 kPa	797.19 ± 0.83
15225 kPa	797.52 ± 0.83
15250 kPa	797.89 ± 0.83
15275 kPa	798.26 ± 0.83
15300 kPa	798.53 ± 0.83
15325 kPa	798.91 ± 0.83
15350 kPa	799.22 ± 0.83
15375 kPa	799.54 ± 0.83
15400 kPa	799.88 ± 0.83
15425 kPa	800.19 ± 0.83
15450 kPa	800.53 ± 0.83
15475 kPa	800.87 ± 0.83
15500 kPa	801.17 ± 0.83
15525 kPa	801.53 ± 0.83
15550 kPa	801.84 ± 0.83
15575 kPa	802.17 ± 0.83
15600 kPa	802.47 ± 0.83
15625 kPa	802.79 ± 0.83
15650 kPa	803.12 ± 0.83
15675 kPa	803.42 ± 0.83
15700 kPa	803.73 ± 0.83
15725 kPa	804.02 ± 0.83
15750 kPa	804.34 ± 0.83
15775 kPa	804.65 ± 0.83
15800 kPa	804.99 ± 0.83
15825 kPa	805.27 ± 0.83
15850 kPa	805.58 ± 0.83
15875 kPa	805.91 ± 0.83
15900 kPa	806.23 ± 0.83
15925 kPa	806.51 ± 0.83
15950 kPa	806.83 ± 0.83
15975 kPa	807.09 ± 0.83
16000 kPa	807.41 ± 0.83
16025 kPa	807.71 ± 0.83
16050 kPa	807.98 ± 0.83
16075 kPa	808.29 ± 0.83
16100 kPa	808.61 ± 0.83
16125 kPa	808.91 ± 0.83
16150 kPa	809.2 ± 0.83
16175 kPa	809.5 ± 0.83
16200 kPa	809.79 ± 0.83
16225 kPa	810.09 ± 0.83
16250 kPa	810.39 ± 0.83
16275 kPa	810.69 ± 0.83
16300 kPa	810.98 ± 0.83
16325 kPa	811.27 ± 0.83
16350 kPa	811.55 ± 0.83
16375 kPa	811.82 ± 0.83
16400 kPa	812.11 ± 0.83
16425 kPa	812.38 ± 0.83
16450 kPa	812.66 ± 0.83
16475 kPa	812.9 ± 0.83
16500 kPa	813.24 ± 0.83
16525 kPa	813.5 ± 0.83
16550 kPa	813.76 ± 0.83
16575 kPa	814.03 ± 0.83
16600 kPa	814.33 ± 0.83
16625 kPa	814.6 ± 0.83
16650 kPa	814.87 ± 0.83
16675 kPa	815.12 ± 0.83
16700 kPa	815.43 ± 0.83
16725 kPa	815.67 ± 0.83
16750 kPa	815.94 ± 0.83
16775 kPa	816.22 ± 0.83
16800 kPa	816.46 ± 0.83
16825 kPa	816.74 ± 0.83
16850 kPa	817 ± 0.83
16875 kPa	817.27 ± 0.83
16900 kPa	817.54 ± 0.83
16925 kPa	817.8 ± 0.83
16950 kPa	818.05 ± 0.83
16975 kPa	818.28 ± 0.83
17000 kPa	818.55 ± 0.83
17025 kPa	818.81 ± 0.83
17050 kPa	819.06 ± 0.83
17075 kPa	819.27 ± 0.83
17100 kPa	819.55 ± 0.83
17125 kPa	819.79 ± 0.83
17150 kPa	820.09 ± 0.83
17175 kPa	820.32 ± 0.83
17200 kPa	820.54 ± 0.83
17225 kPa	820.77 ± 0.83
